Active and inactive are the calls of the source. No cut-off for these calls is given here.
Columns and labels:
Pseudomonas aeruginosa = test: Antibacterial activity against Pseudomonas aeruginosa ATCC 27853 after 24 hr by disk diffusion method; type: functional, organism-based
Escherichia coli [1] = test: Antibacterial activity against Escherichia coli ATCC 35218 after 24 hr by disk diffusion method; type: functional, organism-based
Candida albicans = test: Antifungal activity against Candida albicans ATCC 10231 after 72 hr by disk diffusion method; type: functional, organism-based
Escherichia coli [2] = test: Covalent binding to Escherichia coli pBR322 DNA adenine-adenine site assessed as inhibition of Hind3-mediated restriction digestion at 1250 uM by restriction endonuclease analysis
Escherichia coli [3] = test: Covalent binding to Escherichia coli pBR322 DNA Guanine-guanine site assessed as inhibition of BamH1-mediated restriction digestion at 1250 uM by restriction endonuclease analysis
Escherichia coli [4] = test: Binding affinity to Escherichia coli pBR322 DNA assessed as decrease in mobility of form 1 DNA at low concentration after 24 hr by agarose gel electrophoresis
Proteus vulgaris = test: Antibacterial activity against Proteus vulgaris ATCC 8427 after 24 hr by disk diffusion method; type: functional, organism-based
Bacillus cereus = test: Antibacterial activity against Bacillus cereus NRLL B-3008 after 24 hr by disk diffusion method; type: functional, organism-based
Enterococcus faecalis = test: Antibacterial activity against Enterococcus faecalis […] after 24 hr by disk diffusion method; type: functional, organism-based
Escherichia coli [5] = test: Antibacterial activity against Escherichia coli ATCC 25922 after 24 hr by disk diffusion method; type: functional, organism-based
Bacillus subtilis = test: Antibacterial activity against Bacillus subtilis […] after 24 hr by disk diffusion method; type: functional, organism-based
Escherichia coli [6] = test: Binding affinity to Escherichia coli pBR322 DNA assessed as appearance of DNA fragments at low concentration after 24 hr by agarose gel electrophoresis
Candida tropicalis = test: Antifungal activity against Candida tropicalis ATCC 13803 after 72 hr by disk diffusion method; type: functional, organism-based
Staphylococcus aureus = test: Antibacterial activity against Staphylococcus aureus ATCC 25923 after 24 hr by disk diffusion method; type: functional, organism-based
Escherichia coli [7] = test: Covalent binding to Escherichia coli pBR322 DNA assessed as disappearance of form 2 DNA at low concentration after 24 hr by agarose gel electrophoresis
Escherichia coli [8] = test: Covalent binding to Escherichia coli pBR322 DNA assessed as increase in intensity of form 1 DNA at low concentration after 24 hr by agarose gel electrophoresis
Escherichia coli [9] = test: Covalent binding to Escherichia coli pBR322 DNA assessed as decrease in intensity of form 2 DNA at low concentration after 24 hr by agarose gel electrophoresis

Row | Activity (Escherichia coli [2]) | Activity (Escherichia coli [3]) | Activity (Escherichia coli [4]) | Activity (Escherichia coli [6]) | Activity (Escherichia coli [7]) | Activity (Escherichia coli [8]) | Activity (Escherichia coli [9]) | SMILES | Activity (Pseudomonas aeruginosa) | Activity (Escherichia coli [1]) | Activity (Candida albicans) | Activity (Proteus vulgaris) | Activity (Bacillus cereus) | Activity (Enterococcus faecalis) | Activity (Escherichia coli [5]) | Activity (Bacillus subtilis) | Activity (Candida tropicalis) | Activity (Staphylococcus aureus)
1 | Active | inactive | Active | Active | – | – | – | CCCn1cnc2c(Nc3nnn[nH]3)ncnc21 | inactive | inactive | inactive | inactive | inactive | inactive | inactive | inactive | inactive | inactive
2 | Active | Active | Active | – | Active | – | – | CCCCCCn1cnc2c(Sc3nnnn3C)ncnc21 | inactive | inactive | inactive | inactive | inactive | inactive | inactive | inactive | inactive | inactive
3 | Active | Active | – | Active | – | Active | Active | Cn1nnnc1Sc1ncnc2c1ncn2CC1CCCCC1 | inactive | inactive | inactive | inactive | inactive | inactive | inactive | inactive | inactive | inactive

Reference: ChEMBL document CHEMBL3046837, “Synthesis of some novel amino and thiotetrazole purine derivatives and investigation of their antimicrobial activity and DNA interactions” (Med Chem Res, 2013)
